A short description of data set [1]: Cell viability assay (EZ-Cytox), cytotoxicity. To be noted: human, HepAD38 cells; for viability at 65 h, 100 µM: read-out: Cytotoxicity % Livability (@100 μM). It is filed as cell-based. The protocol: HepAD38 cells were cultured for 2 days in Dulbecco's Modified Eagle's medium (Welgene, LM001-05) supplemented with 10% FBS without tetracycline. […] After 65 hours of treatment, viability was measured using EZ-Cytox cell viability assay kit (Daeil Lab Service) according to the manufacturer's instructions. The absorbance was measured at 450 nm using a spectrophotometer (Spark, Tecan).

Another data set concerns intracellular HBV DNA. Nature of the data set: Real-time PCR for intracellular HBV DNA in HepAD38 cells. To be noted: Hepatitis B virus, HePAD38, 65 h, 65 hours treatment. Format: cell-based.

Molecules are shown by their SMILES. pIC50: −log10 of the molar value.

`COc1ccc(N(Cc2n[nH]c3c2COC3)C(=O)Nc2ccc(F)c(Cl)c2)cn1` [Example 69, 3-(3-chloro-4-fluorophenyl)-1-((4,6-dihydro-1H-furo[3,4-c]pyrazol-3-yl)methyl)-1-(6-methoxypyridin-3-yl)urea]: in data set [1], the CC50 at 65 h was greater than 100000 nM and the viability at 65 h, 100 µM was determined as 94.5%. This compound also showed a pIC50 with intracellular HBV DNA of 7.68.
The corresponding values for `COc1cc(N(Cc2n[nH]c3c2COC3)C(=O)Nc2ccc(F)c(Cl)c2)ccn1` [Example 70, 3-(3-chloro-4-fluorophenyl)-1-((4,6-dihydro-1H-furo[3,4-c]pyrazol-3-yl)methyl)-1-(2-methoxypyridin-4-yl)urea] are greater than 100000 nM, 98% and 8.05.
Turning to `COc1cc(N(Cc2n[nH]c3c2OCCO3)C(=O)Nc2ccc(F)c(Cl)c2)ccn1` [Example 71, 3-(3-chloro-4-fluorophenyl)-1-((5,6-dihydro-1H-[1,4]dioxino[2,3-c]pyrazol-3-yl)methyl)-1-(2-methoxypyridin-4-yl)urea], the CC50 at 65 h in data set [1] was greater than 100000 nM. For the same compound, the negative logarithm of the IC50 (pIC50) with intracellular HBV DNA was 7.12.
For the compound `COc1ccc(N(Cc2cc(C(F)F)[nH]n2)C(=O)Nc2ccc(F)c(Cl)c2)cn1` [Example 72, 3-(3-chloro-4-fluorophenyl)-1-((5-(difluoromethyl)-1H-pyrazol-3-yl)methyl)-1-(6-methoxypyridin-3-yl)urea], in data set [1], the CC50 at 65 h was greater than 66600 nM and the viability at 65 h, 100 µM was determined as 48.5%. Besides, in the data set with intracellular HBV DNA, the pIC50 was 7.32.
Regarding `COc1cc(N(Cc2n[nH]c3c2COCC3)C(=O)Nc2ccc(F)c(Cl)c2)ccn1` [Example 73, 3-(3-chloro-4-fluorophenyl)-1-(2-methoxypyridin-4-yl)-1-((1,4,6,7-tetrahydropyrano[4,3-c]pyrazol-3-yl)methyl)urea], in data set [1], the CC50 at 65 h is greater than 100000 nM and the viability at 65 h, 100 µM was found to be 96.6%. The pIC50 in the data set on intracellular HBV DNA is 7.72.
Take `COc1cc(N(Cc2cc(C(F)(F)F)[nH]n2)C(=O)Nc2ccc(F)c(Cl)c2)ccn1` [Example 74, 3-(3-chloro-4-fluorophenyl)-1-(2-methoxypyridin-4-yl)-1-((5-(trifluoromethyl)-1H-pyrazol-3-yl)methyl)urea]: in data set [1], the CC50 at 65 h was greater than 100000 nM and the viability at 65 h, 100 µM was determined as 55.6%. In addition, in the data set on intracellular HBV DNA, the pIC50 is 7.66.
The corresponding values for `COc1cncc(N(Cc2n[nH]c3c2COCC3)C(=O)Nc2ccc(F)c(Cl)c2)c1` [Example 75, 3-(3-chloro-4-fluorophenyl)-1-(5-methoxypyridin-3-yl)-1-((1,4,6,7-tetrahydropyrano[4,3-c]pyrazol-3-yl)methyl)urea] are greater than 100000 nM, 92.1% and 7.44.
The corresponding values for `COc1cncc(N(Cc2cc(C(F)F)[nH]n2)C(=O)Nc2ccc(F)c(Cl)c2)c1` [Example 77, 3-(3-chloro-4-fluorophenyl)-1-((5-(difluoromethyl)-1H-pyrazol-3-yl)methyl)-1-(5-methoxypyridin-3-yl)urea] are greater than 100000 nM, 86.7% and 7.44.
The corresponding values for `COc1ccc(N(Cc2n[nH]c(C(F)(F)F)c2C)C(=O)Nc2ccc(F)c(Cl)c2)cn1` [Example 78, 3-(3-chloro-4-fluorophenyl)-1-(6-methoxypyridin-3-yl)-1-((4-methyl-5-(trifluoromethyl)-1H-pyrazol-3-yl)methyl)urea] are greater than 100000 nM, 94% and 7.52.
On to `COc1ncc(N(Cc2cc(C(F)(F)F)[nH]n2)C(=O)Nc2ccc(F)c(Cl)c2)cn1` [Example 80, 3-(3-chloro-4-fluorophenyl)-1-(2-methoxypyrimidin-5-yl)-1-((5-(trifluoromethyl)-1H-pyrazol-3-yl)methyl)urea], for which, in data set [1], the midpoint of cytotoxicity, the CC50 at 65 h, lay at 88400 nM and the viability at 65 h, 100 µM was 21.4%. In the data set with intracellular HBV DNA, the pIC50 was 7.72.
For `COCc1c(CN(C(=O)Nc2ccc(F)c(Cl)c2)c2ccc(OC)nc2)n[nH]c1C(F)F` [Example 82, 3-(3-chloro-4-fluorophenyl)-1-((5-(difluoromethyl)-4-(methoxymethyl)-1H-pyrazol-3-yl)methyl)-1-(6-methoxypyridin-3-yl)urea], in data set [1], the CC50 at 65 h is greater than 100000 nM and the viability at 65 h, 100 µM is 85.8%. For the same compound, in the data set with intracellular HBV DNA, the pIC50 was less than 5.96.
Take `CCOC=Cc1c(CN(C(=O)Nc2ccc(F)c(Cl)c2)c2ccc(OC)nc2)n[nH]c1C(F)(F)F` [Example 83, 3-(3-chloro-4-fluorophenyl)-1-((4-(2-ethoxyvinyl)-5-(trifluoromethyl)-1H-pyrazol-3-yl)methyl)-1-(6-methoxypyridin-3-yl)urea]: in data set [1], the CC50 at 65 h is greater than 100000 nM and the viability at 65 h, 100 µM is 95.1%. This compound also had a pIC50 in the data set with intracellular HBV DNA of less than 5.96.
As to `COCCc1c(CN(C(=O)Nc2ccc(F)c(Cl)c2)c2ccc(OC)nc2)n[nH]c1C(F)F` [Example 88, 3-(3-chloro-4-fluorophenyl)-1-((5-(difluoromethyl)-4-(2-methoxyethyl)-1H-pyrazol-3-yl)methyl)-1-(6-methoxypyridin-3-yl)urea], in data set [1], the CC50 at 65 h was greater than 100000 nM and the viability at 65 h, 100 µM came to 74.5%. In addition, the pIC50 in the data set on intracellular HBV DNA was less than 5.96.
The corresponding values for `COc1ncc(N(Cc2cc(C(F)(F)F)[nH]n2)C(=O)Nc2cc(Cl)c(F)cn2)cn1` [Example 89, 3-(4-chloro-5-fluoropyridin-2-yl)-1-(2-methoxypyrimidin-5-yl)-1-((5-(trifluoromethyl)-1H-pyrazol-3-yl)methyl)urea] are greater than 100000 nM, 96% and 7.30.
The compound `COc1ncc(N(Cc2n[nH]c(C(F)F)c2C(C)(C)O)C(=O)Nc2ccc(F)c(Cl)c2)cn1` [Example 92, 3-(3-chloro-4-fluorophenyl)-1-((5-(difluoromethyl)-4-(2-hydroxypropan-2-yl)-1H-pyrazol-3-yl)methyl)-1-(2-methoxypyrimidin-5-yl)urea] showed a CC50 at 65 h in data set [1] greater than 100000 nM. Also, in the data set with intracellular HBV DNA, the negative-log IC50 (pIC50) was less than 5.96.
The corresponding values for `C=C(C)c1c(CN(C(=O)Nc2ccc(F)c(Cl)c2)c2cnc(OC)nc2)n[nH]c1C(F)F` [Example 93, 3-(3-chloro-4-fluorophenyl)-1-((5-(difluoromethyl)-4-(prop-1-en-2-yl)-1H-pyrazol-3-yl)methyl)-1-(2-methoxypyrimidin-5-yl)urea] are greater than 100000 nM and 6.49.
Regarding `COc1cc(N(Cc2cc(C(F)(F)F)[nH]n2)C(=O)Nc2ccc(F)c(Cl)c2)cnn1` [Example 94, 3-(3-chloro-4-fluorophenyl)-1-(6-methoxypyridazin-4-yl)-1-((5-(trifluoromethyl)-1H-pyrazol-3-yl)methyl)urea], in data set [1], the CC50 at 65 h was 64400 nM and the viability at 65 h, 100 µM came out at 4.8%. Also, in the data set with intracellular HBV DNA, the pIC50 is 6.59.
The corresponding values for `COc1ncc(N(Cc2n[nH]c(C(F)(F)F)c2CC(C)O)C(=O)Nc2ccc(F)c(Cl)c2)cn1` (stereo not drawn) [Example 95, 3-(3-chloro-4-fluorophenyl)-1-((4-(2-hydroxypropyl)-5-(trifluoromethyl)-1H-pyrazol-3-yl)methyl)-1-(2-methoxypyrimidin-5-yl)urea] are 62200 nM, 29.9% and 6.08.

The values above are taken from patent US20250009742A1 (priority 2021, published 2025).
